Experimental data taken from patent publication EP1210336B1, “SUBSTITUTED BENZIMIDAZOLES AS NON-NUCLEOSIDE INHIBITORS OF REVERSE TRANSCRIPTASE” (THE UNITED STATES OF AMERICA, as represented by the …, priority 1999, dated 2001).
Like-named read-outs stand apart in the source and are kept apart here.

How the values were obtained:
HIV-1 variant K101E = test: Cytopathic cell killing assay, cross-resistance profile, infected MT-4 cells; format: cell-based; details: Human immunodeficiency virus 1, MT4, Table 8; isolate K101E
Source text: (§1) The various HIV isolates tested in the Figures are those corresponding to wild-type virus (NL4-3) and the other strains listed by their RT mutations. The three 4xAZT isolates included in the Figures represent AZT drug-resistant variants. For example, the 4xAZT/L100I isolate has five mutations: four mutations confer increased resistance to AZT, and the other mutation is located within the NNRTI binding pocket. TZB and nevir. (nevirapine) are two well-known NNRTIs, included in this experiment for comparison purposes. […]
(§2) In this Example, the antiviral and cellular toxicity of NNRTIs was investigated, using the cytopathic cell killing assay described by Yang (Yang et al., "Characteristics of a Group of Non-nucleoside Reverse Transcriptase Inhibitors with Structural Diversity and Potent Anti-Human Immunodeficiency Virus Activity," Leukemia 9:S75-S85 [1995]). Briefly, in this method cells (e.g., the CEM-SS cell line, available from the NIAID AIDS Research and Reference Program [ARRRP]) were seeded at a density of 5 x 10^3 cells/well, into the wells of a 96-well microtiter plate. The cells were then infected with HIV virus (either mutant or WT), at a multiplicity of infection (MOI) previously determined to provide complete cell killing by 6 days of culture post-infection (e.g., MOI of 0.01-0.05). Each of the HIV isolates was pre-titered to induce equivalent levels of infection based on cell killing or virus production, prior to their use in these assays. A range of test compound concentrations was added to the wells in triplicate (e.g., serial half-log dilutions) to evaluate inhibition of HIV infection. Controls for each assay included drug controls (drug colorimetric control wells), drug cytotoxicity control wells (cells with drug), virus control wells (cells with virus), and cell viability controls (cells only). Positive control drugs (e.g., AZT and ddC) were also run in parallel.
(§3) After six days of incubation at 37°C, cell viability was determined spectrophotometrically at 450 nm for each well, using the metabolic reduction of XTT to a soluble colored formazan. (See, Gartner and Popovic, "Virus Isolation and Production, in Aldovini and Walker (eds.), Techniques in HIV Research, Stockton Press, NY, pp. […] [1991]; and Nara and Fischinger, "Quantitative Infectivity Assay for HIV-1 and HIV-2," Nature 332:469-470 [1988]).
(§4) The in vitro therapeutic index (TI50) was defined as the fold-difference between the EC50 and IC50. The results for the various compounds are included in Figures 8 and 19.

HIV-1 variant V179D = test: as above; format: cell-based; details: Human immunodeficiency virus 1, MT4, Table 8; isolate V179D
Source text: as §1, §2, §3, §4

HIV-1 variant L74V = test: as above; format: cell-based; details: Human immunodeficiency virus 1, MT4, Table 8; isolate 1.74V
Source text: as §1, §2, §3, §4

HIV-1 variant Y188C = test: as above; format: cell-based; details: Human immunodeficiency virus 1, MT4, Table 8; isolate Y 188C
Source text: as §1, §2, §3, §4

HIV-1 isolate 4xAZT = test: as above; format: cell-based; details: Human immunodeficiency virus 1, MT4, Table 8; isolate 4XAZT
Source text: as §1, §2, §3, §4

HIV-1 variant L100I = test: as above; format: cell-based; details: Human immunodeficiency virus 1, MT4, Table 8; isolate 1.1001
Source text: as §1, §2, §3, §4

HIV-1 variant V106A = test: as above; format: cell-based; details: Human immunodeficiency virus 1, MT4, Table 8; isolate V 106A
Source text: as §1, §2, §3, §4

HIV-1 variant V108I = test: as above; format: cell-based; details: Human immunodeficiency virus 1, MT4, Table 8; isolate V1081
Source text: as §1, §2, §3, §4

[1] = test system: HIV-1 isolate 4xAZT/Y181C; test: as above; format: cell-based; details: Human immunodeficiency virus 1, MT4, Table 8; isolate 4XAZT /Y181C
Source text: as §1, §2, §3, §4

HIV-1 variant K103N = test: as above; format: cell-based; details: Human immunodeficiency virus 1, MT4, Table 8; isolate K103N
Source text: as §1, §2, §3, §4

HIV-1 variant A98G = test: as above; format: cell-based; details: Human immunodeficiency virus 1, MT4, Table 8; isolate A9SG
Source text: as §1, §2, §3, §4

WT virus (NL4-3) = test: microbe, parasite or virus in culture; format: cell-based, HIV-1; details: for EC50: Human immunodeficiency virus 1, NL43, CEM-SS, read-out: EC50
Experimental: Evaluation of these compounds for the inhibition of HIV-1 was determined as the fifty percent cell culture inhibitory concentration (CIC50) in CEMSS cell culture with WT virus (NL4-3).
as §2, §3, §4

NL4-3 (WT) = test: Cytopathic cell killing assay, cross-resistance profile, infected MT-4 cells; format: cell-based, HIV-1; details: Human immunodeficiency virus 1, NL43, MT4, Table 8; isolate N1.43
Source text: as §1, §2, §3, §4

[2] = test system: HIV-1 isolate 4xAZT/L100I; test: as above; format: cell-based; details: Human immunodeficiency virus 1, MT4, Table 8; isolate 4XA7T L 1001
Experimental: The various HIV isolates tested in the Figures are those corresponding to wild-type virus (NL4-3) and the other strains listed by their RT mutations. The three 4xAZT isolates included in the Figures represent AZT drug-resistant variants. […]
as §2, with “Briefly,” for “In this Example, the antiviral and cellular toxicity of NNRTIs was investigated, using the cytopathic cell killing assay described by Yang (Yang et al., "Characteristics of a Group of Non-nucleoside Reverse Transcriptase Inhibitors with Structural Diversity and Potent Anti-Human Immunodeficiency Virus Activity," Leukemia 9:S75-S85 [1995]). Briefly,”
as §3
The in vitro therapeutic index (TI50) was defined as the fold-difference between the EC50 and IC50.

[3] = Table 7, concentration reducing cell killing or virus production by 50%, HIV-1 WT
[4] = Table 11, CEMSS/NL4-3, NRVC = reduction in viral CPE not seen (footnote)

Compound	EC50 (HIV-1 variant K101E) [nM]	EC50 (HIV-1 variant V179D) [nM]	EC50 (HIV-1 variant L74V) [nM]	EC50 (HIV-1 variant Y188C) [nM]	EC50 (HIV-1 isolate 4xAZT) [nM]	EC50 (HIV-1 variant L100I) [nM]	EC50 (HIV-1 variant V106A) [nM]	EC50 (HIV-1 variant V108I) [nM]	EC50 [1] [nM]	EC50 (HIV-1 variant K103N) [nM]	EC50 (HIV-1 variant A98G) [nM]	EC50 (WT virus (NL4-3); [3]) [nM]	EC50 (WT virus (NL4-3); [4]) [nM]	EC50 (WT virus (NL4-3); cytopathic cell killing assay, HIV-1 WT) [nM]	-fold more potent than the 4-methyl or 4-amino compounds (WT virus (NL4-3); cytopathic cell killing assay) [fold]	EC50 (NL4-3 (WT)) [nM]	EC50 [2] [nM]
CC(=O)N(C)c1cccc2c1nc(-c1c(F)cccc1F)n2Cc1c(F)cccc1F [compound 57, 1-(2,6-Difluorobenzyl)-2-(2,6-difluorophenyl)-4-(N-methylacetamido)-benzimidazole]	600	400	70	500	> 10000	1700	50	> 10000	> 10000	> 10000	100	20	20	20	20	40	1800
CNc1cccc2c1nc(-c1c(F)cccc1F)n2Cc1c(F)cccc1F [compound 58, 1-(2,6-Difluorobenzyl)-2-(2,6-difluorophenyl)-4-(N-methylamino)-benzimidazole]	> 20000	> 10000	3900	> 20000	> 10000	400	> 20000	> 20000	> 20000	> 20000	8500	1700	1700			2600	1000
